Measured values as given in patent US7291295B2, “Method for precipitating finely divided solid particles” (Sociedad Espanola de Carburos Metalicos, S.A., priority 2000, dated 2007).
Each block holds one compound with its values, some of them ahead of it.

Assay: Particle size and size distribution of precipitate by Coulter technique using light dispersion
Format: physicochemical
Protocol: FIGS. 8, 10 and 11 show the distribution of size of the particles using the Coulter technique using light dispersion.
The geometrical characteristics of the particles of precipitate (size and distribution of sizes) are measured by the Coulter technique that uses light dispersion with Fourier lenses. Thus, by “particle size” is meant the value of the median of the curve of distribution of particles, in % in volume, and by “distribution of sizes” is meant the value of the standard deviation from the same curve.

Compound: CC(=O)Nc1ccc(O)cc1 [acetaminophen]
average size of particles of precipitate (Example 1, method of the invention, ethanol-CO2, 100 bar, 42° C., 1,750 ml solution): 15 μm
average size of particles of precipitate (Example 2, GAS process fraction (filter 11), ethanol-CO2, 100 bar, 42° C.): 50 μm
average size of particles of precipitate (Example 2, method of the invention (filter 13), ethanol-CO2, 100 bar, 42° C., 1,600 ml solution): 15 μm
average size of particles of precipitate (Example 5, GAS process (filter 11), acetone-CO2, 100 bar, 42° C.): 50 μm

Compound: CC(=O)Oc1ccccc1C(=O)O [aspirin]
average size of particles of precipitate (Example 6, method of the invention, acetone-CO2, 70 bar, 25° C., molar fraction of CO2 0.6): 14 μm

Compound: CCCCNc1ccc(NCCCC)c2c1C(=O)c1ccccc1C2=O [solvent blue 35]
average size of particles of precipitate (Example 3, method of the invention, acetone-CO2, 60 bar, 25° C., 1,400 ml solution (FIG. 8)): 5 μm
average size of particles of precipitate (Example 4, GAS process fraction (filter 11), acetone-CO2, 60 bar, 25° C. (FIG. 10)): 70 μm
average size of particles of precipitate (Example 4, method of the invention (filter 13), acetone-CO2, 60 bar, 25° C., 640 ml solution (FIG. 11)): 4 μm

Continued, values first:

average size of particles of precipitate (Example 8, method of the invention, ethanol-CO2, 100 bar, 25° C., molar fraction of CO2 0.7): 8 μm
Compound: C1N2CN3CN1CN(C2)C3 [methenamine]

average size of particles of precipitate (Example 7, method of the invention, ethyl acetate-CO2, 100 bar, 25° C., molar fraction of CO2 0.6): 2 μm
Compound: CCCCCCCCCCCCCCCCCC(=O)O [stearic acid]
